Measured values reported in ChEMBL document CHEMBL4325829, “Design and Synthesis of Tubulin and Histone Deacetylase Inhibitor Based on iso-Combretastatin A-4” (J Med Chem, 2018).
Calls of active or inactive are those of the source. The calls are words filed in the database; no cut-off is given here.

Tests used:
K562 = assay: Induction of cell cycle arrest in human K562 cells assessed as accumulation at G2/M phase at 5 to 10 nM after 24 hrs by propidium iodide-staining based flow cytometry; type: functional
Tubulin (Homo sapiens) [1] = target: T1, Tubulin (Homo sapiens) (UniProt P68371+Q9H4B7+P0DPH7+P68366+Q13509+Q71U36+P04350+Q3ZCM7+P07437+P68363+Q9BQE3+Q6PEY2+Q13885+Q9BVA1+Q9BUF5); assay: Inhibition of tubulin polymerization in human K562 cells assessed as shrinkage of microtubule spindles at 10 nM after 24 hrs by DAPI-staining based inverted microscopy; type: cell-based
[2] = target: Histone deacetylase (Homo sapiens) (UniProt Q13547+O15379+Q9UBN7+Q92769+Q9UQL6+Q8WUI4+Q9BY41+Q96DB2+P56524+Q9UKV0+Q969S8); assay: Inhibition of HDAC in human HT-29 cells assessed as phosphorylated gamma-H2AX levels at 40 nM after 3 days by Western blot analysis relative to control; type: cell-based
K-562R = assay: Potency index, ratio of IC50 for TSA to IC50 for test compound for antiproliferative activity against human K562R cells after 72 hrs by MTS assay; type: functional
HCT-116 = assay: Induction of cell cycle arrest in human HCT116 cells assessed as accumulation at G2/M phase at 5 to 10 nM after 24 hrs by propidium iodide-staining based flow cytometry; type: functional
Tubulin (Homo sapiens) [3] = target: T1, Tubulin (Homo sapiens); assay: Inhibition of tubulin polymerization in human K562 cells assessed as disruption of spindle formation at 1 nM after 24 hrs by DAPI-staining based inverted microscopy; type: cell-based
U-87 MG [4] = assay: Potency index, ratio of IC50 for isoCA4 to IC50 for test compound for antiproliferative activity against human U87 cells after 72 hrs by MTS assay; type: functional, U-87MG ATCC
[5] = target: T2, Protein deacetylase HDAC6 (Homo sapiens, UniProt Q9UBN7)
T2 sequence (Q9UBN7 whole entry): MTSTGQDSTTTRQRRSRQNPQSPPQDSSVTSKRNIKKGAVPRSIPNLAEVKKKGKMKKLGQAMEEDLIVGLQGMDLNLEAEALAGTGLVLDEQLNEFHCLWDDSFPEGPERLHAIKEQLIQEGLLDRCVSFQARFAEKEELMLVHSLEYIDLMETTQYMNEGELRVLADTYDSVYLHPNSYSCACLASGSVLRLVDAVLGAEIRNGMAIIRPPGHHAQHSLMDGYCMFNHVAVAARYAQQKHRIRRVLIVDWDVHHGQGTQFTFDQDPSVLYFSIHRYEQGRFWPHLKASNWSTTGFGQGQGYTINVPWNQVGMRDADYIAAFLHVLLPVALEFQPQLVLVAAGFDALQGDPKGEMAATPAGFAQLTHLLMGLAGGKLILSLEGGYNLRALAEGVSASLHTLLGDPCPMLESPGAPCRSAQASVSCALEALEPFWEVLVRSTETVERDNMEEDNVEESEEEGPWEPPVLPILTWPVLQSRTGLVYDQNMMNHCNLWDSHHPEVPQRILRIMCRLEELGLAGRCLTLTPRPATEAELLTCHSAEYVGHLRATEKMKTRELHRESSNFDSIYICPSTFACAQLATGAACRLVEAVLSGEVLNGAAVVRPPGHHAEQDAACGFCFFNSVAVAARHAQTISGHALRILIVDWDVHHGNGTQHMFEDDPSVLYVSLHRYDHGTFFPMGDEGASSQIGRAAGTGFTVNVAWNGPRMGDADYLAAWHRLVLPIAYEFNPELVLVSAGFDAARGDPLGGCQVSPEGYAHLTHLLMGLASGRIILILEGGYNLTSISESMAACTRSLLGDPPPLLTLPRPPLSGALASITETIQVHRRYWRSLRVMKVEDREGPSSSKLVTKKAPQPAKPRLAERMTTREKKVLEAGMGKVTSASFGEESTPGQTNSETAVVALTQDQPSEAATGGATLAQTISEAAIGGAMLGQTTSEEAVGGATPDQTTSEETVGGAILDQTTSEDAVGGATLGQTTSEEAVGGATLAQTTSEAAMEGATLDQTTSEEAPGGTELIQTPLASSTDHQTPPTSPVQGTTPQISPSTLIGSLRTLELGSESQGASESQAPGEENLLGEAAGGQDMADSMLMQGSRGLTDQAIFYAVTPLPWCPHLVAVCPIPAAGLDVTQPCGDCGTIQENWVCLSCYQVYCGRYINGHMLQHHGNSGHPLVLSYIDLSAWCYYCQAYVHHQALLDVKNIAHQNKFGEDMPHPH
Description: Inhibition of human recombinant HDAC6 after 30 mins using fluorogenic substrate by fluorimetric assay

[6] = Antiproliferative activity against human BL2 cells after 72 hrs by MTS assay; type: functional, cell-based; settings: BL2, 72 h
U-87 MG [7] = assay: Potency index, ratio of IC50 for TSA to IC50 for test compound for antiproliferative activity against human U87 cells after 72 hrs by MTS assay; type: functional, U-87MG ATCC
Homo sapiens = species on record: Homo sapiens; assay: Induction of cell cycle arrest in human BL2 cells assessed as accumulation at G2/M phase after 24 hrs by propidium iodide-staining based flow cytometry; type: functional
[8] = target: T3, Protein deacetylase HDAC6 (Homo sapiens) (UniProt Q9UBN7); assay: Inhibition of HDAC6 in human HT-29 cells assessed as acetylated alpha-tubulin levels at 25 uM after 6 hrs by Western blot analysis relative to control; type: cell-based
T3 sequence (whole entry): T2 sequence (Q9UBN7 whole entry)

HT-29 = assay: Potency index, ratio of IC50 for isoCA4 to IC50 for test compound for antiproliferative activity against human HT-29 cells after 72 hrs by MTS assay; type: functional
[9] = target: T3, Protein deacetylase HDAC6 (Homo sapiens); assay: Inhibition of HDAC6 in human HT-29 cells assessed as acetylated alpha-tubulin levels at 25 uM after 24 hrs by Western blot analysis relative to control; type: cell-based

Activity (Tubulin (Homo sapiens) [1]): Active | fold change (FC) [2]: 3.2 | Activity (Tubulin (Homo sapiens) [3]): Active | IC50 [5]: 15 µM | fold change (FC) [8]: 0.4 | fold change (FC) [9]: 0.5
Structure (SMILES): C=C(c1ccc(OC)c(/C=C/C(=O)NO)c1)c1cc(OC)c(OC)c(OC)c1
Activity (K562): Active | Ratio IC50 (K-562R): 60 | Activity (HCT-116): Active | Ratio IC50 (U-87 MG [4]): 5 | IC50 [6]: 0.01 µM | Ratio IC50 (U-87 MG [7]): 650 | Activity (Homo sapiens): Active | Ratio IC50 (HT-29): 135
